Assay results taken from ChEMBL document CHEMBL6083253, “Chemical synthesis and enzymatic late-stage diversification of novel pantothenate analogues with antiplasmodial activity” (Eur J Med Chem, 2024).
Active and inactive are the calls of the source. No cut-off for these calls is given here.

Experiments:
Plasmodium falciparum [1] = test: Antiplasmodial activity against intraerythrocytic stage of Plasmodium falciparum 3D7 assessed as inhibition of parasite proliferation in presence of pantetheinase; assay type: functional, organism-based
[2] = Cytotoxicity against HFF cells assessed as inhibition of cell proliferation at 200 uM incubated for 96 hrs in presence of 16.8 uM of pantothenate by IncuCyte live-cell analysis; assay type: toxicity, cell-based; conditions: human
Priestia megaterium [3] = test: Substrate activity at full length C-terminal his-tagged Bacillus megaterium […] BM3 A82F/F87V double mutant preincubated for 5 min in presence of NADP+ followed by compound addition by LC-MS analysis
Priestia megaterium [4] = test: Substrate activity at full length C-terminal his-tagged wild type Bacillus megaterium […] BM3 preincubated for 5 min in presence of NADP+ followed by compound addition by LC-MS analysis
Priestia megaterium [5] = test: Substrate activity at full length C-terminal his-tagged Bacillus megaterium […] BM3 A82F/F87V double mutant assessed as conversion rate by UV-HPLC analysis
Plasmodium falciparum [6] = test: Antiplasmodial activity against Plasmodium falciparum infected in human Erythrocyte measured after 96 hrs in presence of chloroquine and 100 uM of pantothenate by SYBR green fluorescence dye based microplate reader analysis; assay type: functional, organism-based
[7] = Binding affinity to full length C-terminal his-tagged Bacillus megaterium […] BM3 A82F/F87V double mutant assessed as dissociation constant by Morrison equation based analysis; parameters: species or system Priestia megaterium
Plasmodium falciparum [8] = test: Antiplasmodial activity against Plasmodium falciparum infected in human Erythrocyte measured after 96 hrs in presence of chloroquine and 1 uM of pantothenate by SYBR green fluorescence dye based microplate reader analysis; assay type: functional, organism-based
Plasmodium falciparum [9] = test: Antiplasmodial activity against intraerythrocytic stage of Plasmodium falciparum 3D7 assessed as inhibition of parasite proliferation; assay type: functional, organism-based
[10] = Binding affinity to full length C-terminal his-tagged Bacillus megaterium […] BM3 A82F/F87V double mutant assessed as dissociation constant by Michaelis-Menten equation based analysis; parameters: species or system Priestia megaterium
[11] = Cytotoxicity against HFF cells assessed as inhibition of cell proliferation at 10 uM incubated for 96 hrs by IncuCyte live-cell analysis; assay type: toxicity, cell-based; conditions: human
Priestia megaterium [12] = test: Substrate activity at wild type full length C-terminal his-tagged Bacillus megaterium […] BM3 assessed as conversion rate by UV-HPLC analysis

With `CCCCCCn1cc(CNC(=O)[C@H](O)C(C)(C)CO)nn1` the IC50 (Plasmodium falciparum [1]) was 55 nM.

In the case of `CC(C)CCCc1cc(CNC(=O)[C@H](O)C(C)(C)CO)no1`, the inhibition at 96 h, 200 µM [2] is reported as 102%, the Activity (Priestia megaterium [3]) is reported as “Active” and the Activity (Priestia megaterium [4]) is reported as “Active”. The Activity (Priestia megaterium [5]) was “Active”, the IC50 (Plasmodium falciparum [6]) was > 3.1 µM and the Kd [7] was 3700 nM. The IC50 (Plasmodium falciparum [8]) was 0.35 µM.

In the case of `CC(C)Cc1cc(CNC(=O)[C@H](O)C(C)(C)CO)no1`, the inhibition at 96 h, 200 µM [2] is reported as 100%, the Activity (Priestia megaterium [3]) is reported as “Active” and the Activity (Priestia megaterium [4]) is reported as “Active”. For the same molecule, the Activity (Priestia megaterium [5]) was 37.5%, the IC50 (Plasmodium falciparum [6]) was > 6.3 µM and the Kd [7] was 3000 nM. It also gave an IC50 (Plasmodium falciparum [8]) of 0.47 µM.

With `CC(C)C(O)c1cc(CNC(=O)[C@H](O)C(C)(C)CO)no1` (some centres undefined) the IC50 (Plasmodium falciparum [8]) was 80 µM.

With `CC(C)(CO)[C@@H](O)C(=O)NCc1cn(CCCc2ccccc2)nn1` the Activity (Priestia megaterium [3]) was “Active”, the IC50 (Plasmodium falciparum [9]) was 25 µM and the Activity (Priestia megaterium [4]) was “Active”. It also gave an Activity (Priestia megaterium [5]) of 32.3%, a Kd [10] of 10 µM and an IC50 (Plasmodium falciparum [8]) of 16 µM.

In the case of `CC(C)(CO)[C@@H](O)C(=O)NCc1cn(CC(O)Cc2ccccc2)nn1` (some centres undefined), the IC50 (Plasmodium falciparum [8]) is reported as > 200 µM.

`CCCCCn1cc(CNC(=O)[C@H](O)C(C)(C)CO)nn1` gave an IC50 (Plasmodium falciparum [1]) of 56 nM.

With `CCSCc1cc(CNC(=O)[C@H](O)C(C)(C)CO)no1` the inhibition at 96 h, 200 µM [2] was 100%, the Activity (Priestia megaterium [3]) was “Active” and the Activity (Priestia megaterium [4]) was “Active”. For the same molecule, the Activity (Priestia megaterium [5]) was “Active”, the IC50 (Plasmodium falciparum [6]) was > 1.6 µM and the Kd [7] was 900 nM. For the same molecule, the IC50 (Plasmodium falciparum [8]) was 0.13 µM.

In the case of `CC[S+]([O-])Cc1cc(CNC(=O)[C@H](O)C(C)(C)CO)no1` (some centres undefined), the IC50 (Plasmodium falciparum [8]) is reported as 153 µM.

`CC(C)(O)CCCc1cc(CNC(=O)[C@H](O)C(C)(C)CO)no1` gave an IC50 (Plasmodium falciparum [8]) of 55 µM.

For `CCCCCc1nnc(CNC(=O)[C@H](O)C(C)(C)CO)o1`, the Activity (Priestia megaterium [3]) was “inactive” and the Activity (Priestia megaterium [4]) was “inactive”.

Work on `CCCCc1cc(CNC(=O)[C@H](O)C(C)(C)CO)no1` yielded an IC50 (Plasmodium falciparum [1]) of 72 nM.

In the case of `CCCCCc1noc(CNC(=O)[C@H](O)C(C)(C)CO)n1`, the Activity (Priestia megaterium [3]) is reported as “Active”, the Activity (Priestia megaterium [4]) is reported as “Active” and the Activity (Priestia megaterium [5]) is reported as 32.9%.

For `CCCCCNC(=O)CCNC(=O)[C@H](O)C(C)(C)CO`, the Activity (Priestia megaterium [3]) was “inactive” and the Activity (Priestia megaterium [4]) was “inactive”.

Molecule `CC(C)C(O)Cc1cc(CNC(=O)[C@H](O)C(C)(C)CO)no1` (some centres undefined) has an IC50 (Plasmodium falciparum [8]) of 7.3 µM.

Work on `CC(C)(O)CCc1cc(CNC(=O)[C@H](O)C(C)(C)CO)no1` yielded an IC50 (Plasmodium falciparum [8]) of 29 µM.

In the case of `CCC(C)c1cc(CNC(=O)[C@H](O)C(C)(C)CO)no1` (some centres undefined), the Activity (Priestia megaterium [3]) is reported as “inactive”, the Activity (Priestia megaterium [4]) is reported as “inactive” and the IC50 (Plasmodium falciparum [8]) is reported as 10 µM.

`C[C@@H]1C[C@@H]([C@H](O)CC2CC(=O)NC(=O)C2)C(=O)[C@@H](C)C1` [CYCLOHEXIMIDE] gave an inhibition at 96 h, 10 µM [11] of 100%.

In the case of `CCCCCc1nnc(CNC(=O)[C@H](O)C(C)(C)CO)[nH]1`, the Activity (Priestia megaterium [3]) is reported as “inactive” and the Activity (Priestia megaterium [4]) is reported as “inactive”.

`CCCCCc1cc(CNC(=O)[C@H](O)C(C)(C)CO)no1` showed an IC50 (Plasmodium falciparum [1]) of 160 nM.

In the case of `CC(C)(C)Cc1cc(CNC(=O)[C@H](O)C(C)(C)CO)no1`, the inhibition at 96 h, 200 µM [2] is reported as 102%, the Activity (Priestia megaterium [3]) is reported as “inactive” and the Activity (Priestia megaterium [4]) is reported as “Active”. For the same molecule, the IC50 (Plasmodium falciparum [6]) was > 50 µM and the IC50 (Plasmodium falciparum [8]) was 4 µM.

In the case of `CC(C)CCc1cc(CNC(=O)[C@H](O)C(C)(C)CO)no1`, the inhibition at 96 h, 200 µM [2] is reported as 100%, the Activity (Priestia megaterium [3]) is reported as “Active” and the Activity (Priestia megaterium [4]) is reported as “Active”. For the same molecule, the IC50 (Plasmodium falciparum [6]) was > 3.1 µM, the Activity (Priestia megaterium [12]) was 85.6% and the IC50 (Plasmodium falciparum [8]) was 0.22 µM.

In the case of `CC(C)C(O)CCc1cc(CNC(=O)[C@H](O)C(C)(C)CO)no1` (some centres undefined), the inhibition at 96 h, 200 µM [2] is reported as 101%, the IC50 (Plasmodium falciparum [6]) is reported as > 50 µM and the IC50 (Plasmodium falciparum [8]) is reported as 3.9 µM.
